Experiments:
[1] = tested on: K562 cells; experiment: Anti-proliferative assay (MTT), K562; assay type: cell-based; conditions: Homo sapiens, 48 h, triplicate, mean ± SD
Procedure: (§1) The MTT method was used for the determination of anti-proliferative activities of selected compounds against tumor cells. Human histiocytic lymphoma cells U937, human chronic myeloid leukemia cells K562, liver carcinoma alexander cells PLC/PRF/5, human prostate cancer cells PC-3, human ovarian clear cell carcinoma cells ES-2, human hepatocellular carcinoma cells HepG2 were selected as tested tumor cell lines. Firstly, the cells were cultured in RPMI 1640 medium with 10% FBS at 37 °C in 5% CO2 humidified incubator. Cells (100 μL) in logarithmic phase were inoculated in 96-well plates and allowed to grow for 4 h. Subsequently, inhibitors (100 μL) at the tested concentration were added, followed by incubation for 48 h. Then, to the mixture was added MTT solution (20 μL, 5 mg/mL) and further incubated for 4 h. The plates were centrifuged at 800 rpm for 3 min. The supernatant was poured off and the formed formazan was dissolved in DMSO (200 μL). Finally, the mixture was shaken for 15 min and the absorbance values of the formazan solution were measured at 570 nm with a plate reader (Varioskan, Thermo, Waltham, MA, USA). All the tumor cells were owned by our laboratory.

[2] = tested on: PC-3 cells; experiment: Anti-proliferative assay (MTT), PC-3; assay type: cell-based; conditions: Homo sapiens, 48 h, triplicate, mean ± SD
Procedure: as §1

[3] = tested on: HepG2 cells; experiment: Anti-proliferative assay (MTT), HepG2; assay type: cell-based; conditions: Homo sapiens, 48 h, triplicate, mean ± SD
Procedure: as §1

[4] = tested on: PLC/PRF/5 cells; experiment: Anti-proliferative assay (MTT), PLC/PRF/5; assay type: cell-based; conditions: Homo sapiens, 48 h, triplicate, mean ± SD
Procedure: as §1

[5] = tested on: ES-2 cells; experiment: Anti-proliferative assay (MTT), ES-2; assay type: cell-based; conditions: Homo sapiens, 48 h, triplicate, mean ± SD
Procedure: as §1

[6] = tested on: U937 cells; experiment: Anti-proliferative assay (MTT), U937; assay type: cell-based; conditions: Homo sapiens, U-937, 48 h, triplicate, mean ± SD
Procedure: as §1

[7] = molecular target: T1, porcine kidney aminopeptidase N (APN) (Sus scrofa, UniProt P15145); experiment: Enzymatic inhibition assay against APN in vitro (L-Leu-p-nitroanilide substrate); assay type: biochemical; conditions: for IC50: soluble APN from porcine kidney microsomal, 37 °C, 30 min, triplicate, mean ± SD
T1 construct: purchased Enzo Life Sciences; host or cells: porcine kidney microsomes (tissue-derived)
T1 sequence (P15145 1-963): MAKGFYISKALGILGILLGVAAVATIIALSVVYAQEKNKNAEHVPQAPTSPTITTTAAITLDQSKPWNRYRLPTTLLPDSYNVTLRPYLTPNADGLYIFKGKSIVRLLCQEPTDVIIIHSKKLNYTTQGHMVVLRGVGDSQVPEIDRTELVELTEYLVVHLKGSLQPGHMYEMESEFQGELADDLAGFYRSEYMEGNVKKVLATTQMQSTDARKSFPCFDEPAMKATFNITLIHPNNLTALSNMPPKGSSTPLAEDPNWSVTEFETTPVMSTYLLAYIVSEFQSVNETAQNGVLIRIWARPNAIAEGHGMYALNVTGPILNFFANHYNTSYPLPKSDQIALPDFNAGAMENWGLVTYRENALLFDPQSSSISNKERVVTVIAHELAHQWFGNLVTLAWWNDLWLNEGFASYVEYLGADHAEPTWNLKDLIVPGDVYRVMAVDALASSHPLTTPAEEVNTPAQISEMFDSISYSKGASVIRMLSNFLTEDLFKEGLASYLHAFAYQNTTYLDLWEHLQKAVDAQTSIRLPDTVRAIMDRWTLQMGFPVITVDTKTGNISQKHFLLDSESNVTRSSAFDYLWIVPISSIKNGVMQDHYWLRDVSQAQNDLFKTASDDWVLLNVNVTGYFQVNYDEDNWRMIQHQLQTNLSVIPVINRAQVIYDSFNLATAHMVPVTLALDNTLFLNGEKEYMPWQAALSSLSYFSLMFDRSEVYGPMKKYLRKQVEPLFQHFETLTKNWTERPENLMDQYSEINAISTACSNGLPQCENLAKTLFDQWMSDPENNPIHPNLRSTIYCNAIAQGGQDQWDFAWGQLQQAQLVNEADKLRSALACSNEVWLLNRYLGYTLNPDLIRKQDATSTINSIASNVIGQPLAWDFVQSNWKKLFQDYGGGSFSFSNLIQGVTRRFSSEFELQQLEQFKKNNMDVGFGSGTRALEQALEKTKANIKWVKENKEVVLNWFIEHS
Procedure: The enzymatic inhibitory activities of target compounds were evaluated using L-Leu-p-nitroanilide (Sigma-Aldrich, St. Louis, MO, USA) as substrate and soluble APN from porcine kidney microsomal (Enzo Life Sciences, Farmingdale, NY, USA) as enzyme. Firstly, the substrate was dissolved in DMSO to a concentration of 16 mmol/L and the enzyme was dissolved in buffer solution of 50 mM PBS (pH = 7.2) for a concentration of 0.15 IU/L. Subsequently, inhibitors (40 μL) and PBS (145 μL) were added into the 96-well plates, followed by the addition of substrate (5 μL) and enzyme (10 μL). After incubation at 37 °C for 30 min, the absorbance values were measured at 405 nm with a plate reader (Varioskan, Thermo Fisher Scientific, Waltham, MA, USA).

[8] = tested on: rat thoracic aorta rings; experiment: Rat aortic ring assay (ex vivo anti-angiogenesis); assay type: cell-based, Sprague Dawley rats
Procedure: The thoracic aortas were separated from 8- to 10-week-old male Sprague Dawley rats and cut into rings with a 1-mm-long cross-section after removal of the connective tissues around the aortas. The fresh aortic ring was added into the 96-well plates pre-coated with matrigel (50 μL, BD bioscience), and covered with another 50 μL of matrigel. After incubation at 37 °C in 5% CO2 for 0.5 h, the tested compounds (100 μL) in M199 culture medium with 10% FBS was added to the mixture and incubated at 37 °C in 5% CO2 for 9 d. For the treatment group, the M199 culture medium with 10% FBS and inhibitors was changed every three days. For the control group, the M199 culture medium with 10% FBS and 0.5% DMSO was changed every three days. The formed micro-vessels were photographed by inverted microscope at 100× magnification. Experiments were repeated three times. All experiments involving laboratory animals were performed with the approval of the Laboratory Animal Welfare Review Committee of Shandong University of Traditional Chinese Medicine.

CC(C)C[C@H](NC(=O)[C@@H](O)[C@H](N)Cc1ccccc1)C(=O)O [Bestatin, bestatin, reference compound]
IC50 [1]: > 500 µM
IC50 [2]: > 500 µM
IC50 [3]: > 500 µM
IC50 [4]: > 500 µM
IC50 [5]: > 500 µM
IC50 [6]: > 500 µM

CC(=O)N1N=C(c2c(Cl)cccc2Cl)CC1c1ccccc1OCC(=O)NO (centres unmarked) [Compound 14o, 2-(2-(1-Acetyl-3-(2,6-dichlorophenyl)-4,5-dihydro-1H-pyrazol-5-yl)phenoxy)-N-hydroxyacetamide]
fold more potent against APN than lead compound 13c ([7]; ratio of APN IC50 values): over 9 fold
fold more potent against APN than positive control bestatin ([7]; ratio of APN IC50 values): over 1419 fold
IC50 [7]: 0.0062 ± 0.0004 µM
IC50 [1]: 10.4 ± 1.2 µM
IC50 [2]: 45.8 ± 4.1 µM
IC50 [3]: 84.2 ± 7.6 µM
melting point: 174 to 176 °C
IC50 [4]: 88.5 ± 7.4 µM
IC50 [5]: 115 ± 9.7 µM
growth of micro-vessels derived from the thoracic aorta rings ([8]; 1 μM and 50 μM, 9 d incubation): could prevent the growth of micro-vessels derived from the thoracic aorta rings in a dose–dependent manner
micro-vessels at 50 μM compared with the group treated with 1 μM ([8]; 50 μM, 9 d incubation): obviously reduced micro-vessels
anti-angiogenic activity compared with bestatin ([8]; same concentration of 50 μM): much better than that of bestatin
IC50 [6]: 38.3 ± 3.6 µM

CC(=O)N1N=C(c2ccccc2I)CC1c1ccc(Br)cc1OCC(=O)NO (centres unmarked) [Compound 14s, 2-(2-(1-Acetyl-3-(2-iodophenyl)-4,5-dihydro-1H-pyrazol-5-yl)-5-bromophenoxy)-N-hydroxyacetamide]
IC50 [7]: 2.1 ± 0.2 µM
melting point: 168 to 170 °C

NC(=O)N1N=C(c2ccccc2I)CC1c1ccc(Br)cc1OCC(=O)NO (centres unmarked) [Compound 14t, 5-(4-Bromo-2-(2-(hydroxyamino)-2-oxoethoxy)phenyl)-3-(2-iodophenyl)-4,5-dihydro-1H-pyrazole-1-carboxamide]
IC50 [7]: 1.6 ± 0.1 µM
melting point: 196 to 198 °C

CC(=O)N1N=C(c2ccccc2I)CC1c1cc(Br)ccc1OCC(=O)NO (centres unmarked) [Compound 14u, 2-(2-(1-Acetyl-3-(2-iodophenyl)-4,5-dihydro-1H-pyrazol-5-yl)-4-bromophenoxy)-N-hydroxyacetamide]
IC50 [7]: 0.37 ± 0.02 µM
melting point: 106 to 108 °C

NC(=O)N1N=C(c2ccccc2I)CC1c1cc(Br)ccc1OCC(=O)NO (centres unmarked) [Compound 14v, 5-(5-Bromo-2-(2-(hydroxyamino)-2-oxoethoxy)phenyl)-3-(2-iodophenyl)-4,5-dihydro-1H-pyrazole-1-carboxamide]
IC50 [7]: 0.54 ± 0.04 µM
melting point: 202 to 204 °C

CC(=O)N1N=C(c2ccccc2I)CC1c1c(Br)cccc1OCC(=O)NO (centres unmarked) [Compound 14w, 2-(2-(1-Acetyl-3-(2-iodophenyl)-4,5-dihydro-1H-pyrazol-5-yl)-3-bromophenoxy)-N-hydroxyacetamide]
IC50 [7]: 0.024 ± 0.001 µM
melting point: 152 to 154 °C

NC(=O)N1N=C(c2ccccc2I)CC1c1c(Br)cccc1OCC(=O)NO (centres unmarked) [Compound 14x, 5-(2-Bromo-6-(2-(hydroxyamino)-2-oxoethoxy)phenyl)-3-(2-iodophenyl)-4,5-dihydro-1H-pyrazole-1-carboxamide]
IC50 [7]: 0.09 ± 0.005 µM
melting point: 132 to 134 °C

CC(=O)N1N=C(c2ccccc2I)CC1c1c(Cl)cccc1OCC(=O)NO (centres unmarked) [Compound 14y, 2-(2-(1-Acetyl-3-(2-iodophenyl)-4,5-dihydro-1H-pyrazol-5-yl)-3-chlorophenoxy)-N-hydroxyacetamide]
IC50 [7]: 0.023 ± 0.001 µM
melting point: 168 to 170 °C

NC(=O)N1N=C(c2ccccc2I)CC1c1c(Cl)cccc1OCC(=O)NO (centres unmarked) [Compound 14z, 5-(2-Chloro-6-(2-(hydroxyamino)-2-oxoethoxy)phenyl)-3-(2-iodophenyl)-4,5-dihydro-1H-pyrazole-1-carboxamide]
IC50 [7]: 0.07 ± 0.003 µM
melting point: 190 to 192 °C

Reference: article PMC9736874, “Development of Hydroxamate Derivatives Containing a Pyrazoline Moiety as APN Inhibitors to Overcome Angiogenesis” (Molecules, 2022)
